We go through four molecules from patent publication US11572398B2, “GLP-1 derivatives and uses thereof” (Novo Nordisk A/S, priority 2014, dated 2023).

Read-outs that look alike come from different tables or passages of the source.

Data set [1] is described as follows: in vivo. Particulars: male, Göttingen, minipig, iv.
The target of data set [2] is T1, human GLP-1 receptor (Homo sapiens, UniProt P43220).
T1 construct: expressed in transfected cells; host or cells: BHK cells (parent line BHKTS13), clone FCW467-12A; membrane preparation
The data set can be described thus: GLP-1 receptor binding: competitive binding assay (125I-GLP-1, SPA) on isolated membranes at low and high HSA.

Data set [3] addresses T1, human GLP-1 receptor. Briefly: In vitro potency: CRE luciferase reporter gene assay in BHK cells expressing the human GLP-1 receptor. The format is cell-based. The method in brief: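 Whole-cell assay in stably transfected BHK cells carrying CRE-driven firefly luciferase, 5×10^3 cells/well, in assay buffer with 2% ovalbumin and 0.2% Pluronic F-68. Compound working solutions were 0.2 μM.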
Background: A reporter such as luciferase makes a cellular process visible.

Setting [4] is: Low HSA IC50, low HSA (max. 0.001% final assay concentration).

T1 sequence (P43220 24-463): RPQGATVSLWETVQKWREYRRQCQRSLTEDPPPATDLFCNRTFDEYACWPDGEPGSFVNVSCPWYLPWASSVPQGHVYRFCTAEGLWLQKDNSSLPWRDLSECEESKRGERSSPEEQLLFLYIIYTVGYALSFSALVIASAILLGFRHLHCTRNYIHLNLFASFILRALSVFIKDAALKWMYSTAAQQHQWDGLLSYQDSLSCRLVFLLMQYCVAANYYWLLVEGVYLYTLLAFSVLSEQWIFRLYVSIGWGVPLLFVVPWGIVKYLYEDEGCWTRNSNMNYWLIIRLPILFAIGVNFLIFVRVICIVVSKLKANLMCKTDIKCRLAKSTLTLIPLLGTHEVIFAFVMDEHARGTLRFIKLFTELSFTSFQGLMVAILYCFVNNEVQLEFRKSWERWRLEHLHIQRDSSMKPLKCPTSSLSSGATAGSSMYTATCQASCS

In general, half-life refers to how long it takes for the measured level to halve. A high value points to slow loss. In data set [1], `CC[C@H](C)[C@H](NC(=O)[C@H](Cc1ccccc1)NC(=O)[C@H](CCC(=O)O)NC(=O)[C@H](CCCNC(=N)N)NC(=O)[C@H](C)NC(=O)[C@H](C)NC(=O)[C@H](CCC(N)=O)NC(=O)[C@H](CCC(=O)O)NC(=O)[C@H](CCC(=O)O)NC(=O)[C@H](CC(C)C)NC(=O)[C@H](Cc1ccc(O)cc1)NC(=O)[C@H](CO)NC(=O)[C@H](CO)NC(=O)[C@@H](NC(=O)[C@H](CC(=O)O)NC(=O)[C@H](CO)NC(=O)[C@@H](NC(=O)[C@H](Cc1ccccc1)NC(=O)[C@@H](NC(=O)CNC(=O)[C@H](CCC(=O)O)NC(=O)C(C)(C)NC(=O)[C@@H](N)Cc1c[nH]cn1)[C@@H](C)O)[C@@H](C)O)C(C)C)C(=O)N[C@@H](C)C(=O)N[C@@H](Cc1c[nH]c2ccccc12)C(=O)N[C@@H](CC(C)C)C(=O)N[C@H](C(=O)N[C@@H](CCCNC(=N)N)C(=O)NCC(=O)N[C@@H](CCCNC(=N)N)C(=O)N[C@@H](CCCCNC(=O)CN(CCCNC(=O)CCOCCOCCOCCOCCNC(=O)CCOCCOCCOCCOCCNC(=O)CCOCCOCCOCCOCCNC(=O)[C@@H](N)CCCCNC(=O)[C@@H](N)CCCCNC(=O)CCCCCCCCCCCCCCCCCCC(=O)O)CCCNC(=O)CCOCCOCCOCCOCCNC(=O)CCOCCOCCOCCOCCNC(=O)CCOCCOCCOCCOCCNC(=O)[C@@H](N)CCCCNC(=O)[C@@H](N)CCCCNC(=O)CCCCCCCCCCCCCCCCCCC(=O)O)C(=O)O)C(C)C` [Example 5, N{Epsilon-37}-[2-[bis[3-[3-[2-[2-[2-[2-[3-[2-[2-[2-[2-[3-[2-[2-[2-[2-[[(2S)-2-amino-6-[[(2S)-2-amino-6-(19-carboxynonadecanoylamino)hexanoyl]amino]hexanoyl]amino]ethoxy]ethoxy]ethoxy]ethoxy]propanoylamino]ethoxy]ethoxy]ethoxy]ethoxy]propanoylamino]ethoxy]ethoxy]ethoxy]ethoxy]propanoylamino]propyl]amino]acetyl]-[Aib8,Glu22,Arg26,Arg34,Lys37]-GLP-1-(7-37)-peptide] had a half-life of 122 h.
In general, IC50 refers to the concentration at which inhibition is half-maximal. The EC50 is the concentration giving half of the maximal effect. Regarding `CC[C@H](C)[C@H](NC(=O)[C@H](Cc1ccccc1)NC(=O)[C@H](CCC(=O)O)NC(=O)[C@H](CCCNC(=N)N)NC(=O)[C@H](C)NC(=O)[C@H](C)NC(=O)[C@H](CCC(N)=O)NC(=O)[C@H](CCC(=O)O)NC(=O)[C@H](CCC(=O)O)NC(=O)[C@H](CC(C)C)NC(=O)[C@H](Cc1ccc(O)cc1)NC(=O)[C@H](CO)NC(=O)[C@H](CO)NC(=O)[C@@H](NC(=O)[C@H](CC(=O)O)NC(=O)[C@H](CO)NC(=O)[C@@H](NC(=O)[C@H](Cc1ccccc1)NC(=O)[C@@H](NC(=O)CNC(=O)[C@H](CCC(=O)O)NC(=O)C(C)(C)NC(=O)[C@@H](N)Cc1c[nH]cn1)[C@@H](C)O)[C@@H](C)O)C(C)C)C(=O)N[C@@H](C)C(=O)N[C@@H](Cc1c[nH]c2ccccc12)C(=O)N[C@@H](CC(C)C)C(=O)N[C@H](C(=O)N[C@@H](CCCNC(=N)N)C(=O)NCC(=O)N[C@@H](CCCNC(=N)N)C(=O)N[C@@H](CCCCNC(=O)COCCOCCNC(=O)COCCOCCNC(=O)COCCOCCNC(=O)COCCOCCNC(=O)COCCOCCNC(=O)COCCOCCNC(=O)CN(CCCNC(=O)[C@H](CO)NC(=O)CC[C@H](NC(=O)[C@H]1CC[C@H](CNC(=O)CCCCCCCCCCCCCCCCCCC(=O)O)CC1)C(=O)O)CCCNC(=O)[C@H](CO)NC(=O)CC[C@H](NC(=O)[C@H]1CC[C@H](CNC(=O)CCCCCCCCCCCCCCCCCCC(=O)O)CC1)C(=O)O)C(=O)O)C(C)C` [Example 25], the half-inhibitory concentration (IC50) in data set [2] (setting [4]) turned out to be 0.91 nM; in data set [2] (high HSA (2.0% final assay concentration), read-out: High HSA IC50), 41 nM. The EC50 in data set [3] (whole cell reporter gene assay, BHK cells, human GLP-1 receptor, average of at least two replicates, read-out: EC50) was 0.03 nM.
The molecule `CC[C@H](C)[C@H](NC(=O)[C@H](Cc1ccccc1)NC(=O)[C@H](CCC(=O)O)NC(=O)[C@H](CCCNC(=N)N)NC(=O)[C@H](C)NC(=O)[C@H](C)NC(=O)[C@H](CCC(N)=O)NC(=O)[C@H](CCC(=O)O)NC(=O)[C@H](CCC(=O)O)NC(=O)[C@H](CC(C)C)NC(=O)[C@H](Cc1ccc(O)cc1)NC(=O)[C@H](CO)NC(=O)[C@H](CO)NC(=O)[C@@H](NC(=O)[C@H](CC(=O)O)NC(=O)[C@H](CO)NC(=O)[C@@H](NC(=O)[C@H](Cc1ccccc1)NC(=O)[C@@H](NC(=O)CNC(=O)[C@H](CCC(=O)O)NC(=O)C(C)(C)NC(=O)[C@@H](N)Cc1c[nH]cn1)[C@@H](C)O)[C@@H](C)O)C(C)C)C(=O)N[C@@H](C)C(=O)N[C@@H](Cc1c[nH]c2ccccc12)C(=O)N[C@@H](CC(C)C)C(=O)N[C@H](C(=O)N[C@@H](CCCNC(=N)N)C(=O)NCC(=O)N[C@@H](CCCNC(=N)N)C(=O)N[C@@H](CCCCNC(=O)CN(CCCNC(=O)COCCOCCNC(=O)COCCOCCNC(=O)COCCOCCNC(=O)COCCOCCNC(=O)COCCOCCNC(=O)[C@@H](N)CCCCNC(=O)[C@@H](N)CCCCNC(=O)CCCCCCCCCCCCCCCCCCC(=O)O)CCCNC(=O)COCCOCCNC(=O)COCCOCCNC(=O)COCCOCCNC(=O)COCCOCCNC(=O)COCCOCCNC(=O)[C@@H](N)CCCCNC(=O)[C@@H](N)CCCCNC(=O)CCCCCCCCCCCCCCCCCCC(=O)O)C(=O)O)C(C)C` [Example 1, N{Epsilon-37}-[2-[bis[3-[[2-[2-[2-[[2-[2-[2-[[2-[2-[2-[[2-[2-[2-[[2-[2-[2-[[(2S)-2-amino-6-[[(2S)-2-amino-6-(19-carboxynonadecanoylamino)hexanoyl]amino]hexanoyl]amino]ethoxy]ethoxy]acetyl]amino]ethoxy]ethoxy]acetyl]amino]ethoxy]ethoxy]acetyl]amino]ethoxy]ethoxy]acetyl]amino]ethoxy]ethoxy]acetyl]amino]propyl]amino]acetyl]-[Ab8,Glu22,Arg26,Arg34,Lys37]-GLP-1-(7-37)-peptide] had a half-life in data set [1] of 130 h.
On to `CC[C@H](C)[C@H](NC(=O)[C@H](Cc1ccccc1)NC(=O)[C@H](CCC(=O)O)NC(=O)[C@H](CCCNC(=N)N)NC(=O)[C@H](C)NC(=O)[C@H](C)NC(=O)[C@H](CCC(N)=O)NC(=O)[C@H](CCC(=O)O)NC(=O)[C@H](CCC(=O)O)NC(=O)[C@H](CC(C)C)NC(=O)[C@H](Cc1ccc(O)cc1)NC(=O)[C@H](CO)NC(=O)[C@H](CO)NC(=O)[C@@H](NC(=O)[C@H](CC(=O)O)NC(=O)[C@H](CO)NC(=O)[C@@H](NC(=O)[C@H](Cc1ccccc1)NC(=O)[C@@H](NC(=O)CNC(=O)[C@H](CCC(=O)O)NC(=O)C(C)(C)NC(=O)[C@@H](N)Cc1c[nH]cn1)[C@@H](C)O)[C@@H](C)O)C(C)C)C(=O)N[C@@H](C)C(=O)N[C@@H](Cc1c[nH]c2ccccc12)C(=O)N[C@@H](CC(C)C)C(=O)N[C@H](C(=O)N[C@@H](CCCNC(=N)N)C(=O)NCC(=O)N[C@@H](CCCNC(=N)N)C(=O)N[C@@H](CCCCNC(=O)CN(CCCNC(=O)COCCOCCNC(=O)COCCOCCNC(=O)COCCOCCNC(=O)COCCOCCNC(=O)COCCOCCNC(=O)COCCOCCNC(=O)CC[C@H](NC(=O)CCCNC(=O)CCCCCCCCCCCCCCCS(=O)(=O)O)C(=O)O)CCCNC(=O)COCCOCCNC(=O)COCCOCCNC(=O)COCCOCCNC(=O)COCCOCCNC(=O)COCCOCCNC(=O)COCCOCCNC(=O)CC[C@H](NC(=O)CCCNC(=O)CCCCCCCCCCCCCCCS(=O)(=O)O)C(=O)O)C(=O)O)C(C)C` [Example 18, N{Epsilon-37}-[2-[bis[3-[[2-[2-[2-[[2-[2-[2-[[2-[2-[2-[[2-[2-[2-[[2-[2-[2-[[2-[2-[2-[[(4S)-4-carboxy-4-[4-(16-sulfohexadecanoylamino)butanoylamino]butanoyl]amino]ethoxy]ethoxy]acetyl]amino]ethoxy]ethoxy]acetyl]amino]ethoxy]ethoxy]acetyl]amino]ethoxy]ethoxy]acetyl]amino]ethoxy]ethoxy]acetyl]amino]ethoxy]ethoxy]acetyl]amino]propyl]amino]acetyl]-[Aib8,Glu22,Arg26,Arg34,Lys37]-GLP-1-(7-37)-peptide], for which the half-maximal inhibitory concentration (IC50) amounted to 5.7 nM in data set [2] (High HSA IC50, high HSA (2.0% final assay concentration)) and 0.18 nM in data set [2] (setting [4]). The EC50 in data set [3] is 0.0013 nM.
